Laboratory results from US8101580B2, “Therapeutic agent for irritable bowel syndrome” (Astellas Pharma Inc., priority 2005, dated 2012).

How the values were obtained:
[1] = system: fed male ddY mice; experiment: Restraint stress-induced defication model; assay type: in vivo; details: for 50% inhibition dose for restraint stress-induced defication: number of feces excreted during 1 hour of restraint
From the text: RC-3095 was used by dissolving in physiological saline, and compound 1, compound 3 and compound 5 in physiological saline containing 5% ethanol+5% Cremophor, and compound 2 and compound 4 in water for injection containing 20% propylene glycol+20% Tween 80. Just after intraperitoneal administration of a compound to be tested to each of fed male ddY mice, the animal was put into a restraint stress cage (KN-469, Natsume Seisakusho). The number of feces excreted during a period of from the restriction commencement to 1 hour thereafter was measured. Normal group was put into a separate cage, and number of feces excreted during 1 hour was measured in the same manner.

[2] = system: fed male Sprague-Dawley rats; experiment: Conditioned-fear stress (CFS)-induced defication model; assay type: in vivo; details: wet weight of feces for 30 minutes
Experimental: Fed male Sprague-Dawley rats were used. The rats were put into an electric shock device having a grid set in the floor (17×17×39 cm, trade name: CB 2000 type, O'Hara), and conditioning was carried out after 3 seconds of a warning sound, by applying an electric current of 2.5 mA for 5 seconds per once per minute, a total of 15 times, and carrying out light irradiation by three 40 W electric bulbs at the time of the electric shock. The normal group was put into the measuring device by the same protocol, but the electric shock was not applied. After about 24 hours, the rats were again put into the electric shock device just after intraperitoneal administration of tested compound, and CFS loading was carried out by applying 3 seconds of warning sound and 5 seconds light irradiation for 30 minutes. Wet weights of excreted feces were measured for 30 minutes starting from the commencement of CFS loading. In this connection, the feces just after putting of the rats into the measuring device were excluded from measured values.

[3] = system: fed male Wistar rats; experiment: Abdominal pain model by large intestinal distension using abdominal muscle contraction reaction as the index; assay type: in vivo
Experimental: Fed male Wistar rats were used. Under pentobarbital anesthesia, an electrode for electromyogram use (trade name: M-1.5I, Star Medical) was sewed on the outer abdominal oblique muscle. The electrode cord was fished out from the body of around the back of the head through the skin and protected with a protective jacket prepared by processing Velcro. The test was carried out when 5 days or more passed after the surgical operation.
On the day of the test, a latex balloon of 5 to 6 cm in length was inserted from the rat anus under a light ether anesthesia and adjusted such that the balloon end is positioned at 2 cm from the anus. The catheter continuing from the balloon was fixed to the tail base with a tape and connected to a pressure transducer and a plastic bottle filled with water via a three-way cock. The plastic bottle was connected to a motor-aided device such that its height can be increased at a constant rate, and the colon-rectum was distended by increasing height of the plastic bottle. The balloon internal pressure signal was amplified using an amplifier for strain pressure use. After recovering from the ether anesthesia in a cage (23.5×19×19 cm), the colon-rectum distension was carried out. […] As a result, the abdominal muscle contracts and the electromyogram activities increase suddenly and sharply. The pressure at this point of time was regarded as the abdominal pain reflection threshold value. The electromyogram activities were amplified using an amplifier for bioelectric use (trade name: AB-621G, Nihon Kohden Corp.), and recorded by a data recording interface (trade name: 1401 plus, Cambridge Electronic Design, Cambridge, England). The colon-rectum distension was repeatedly carried out at intervals of 4 minutes until completion of the test. The compound was administered 2 minutes after completion of the measurement of the pre-administration value, and the colon-rectum distension was repeated until 60 minutes after the administration. […]

[4] = molecular target: T1, BB2 receptor (Homo sapiens, UniProt P30550); experiment: BB2 receptor binding test (125I [Tyr4] bombesin, PC-3 cell membrane sample); details: membrane sample of human prostate cancer-derived PC-3 cell; 125I [Tyr4] bombesin 0.075 nM; room temperature, 2 hours; read-out: 50% binding inhibition concentration
T1 construct: endogenous in cells; host or cells: PC-3 human prostate cancer cells (membrane preparation)
T1 sequence (P30550 whole entry): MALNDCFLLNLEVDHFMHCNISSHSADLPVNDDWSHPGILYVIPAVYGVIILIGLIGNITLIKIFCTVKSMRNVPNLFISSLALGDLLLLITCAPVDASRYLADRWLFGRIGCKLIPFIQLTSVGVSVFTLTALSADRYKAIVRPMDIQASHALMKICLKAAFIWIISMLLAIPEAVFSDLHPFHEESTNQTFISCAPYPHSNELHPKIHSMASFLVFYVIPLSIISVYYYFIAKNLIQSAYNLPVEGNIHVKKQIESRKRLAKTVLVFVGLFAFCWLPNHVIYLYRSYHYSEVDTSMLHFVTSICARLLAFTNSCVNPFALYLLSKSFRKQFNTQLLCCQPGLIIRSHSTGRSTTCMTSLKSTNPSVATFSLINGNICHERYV
Experimental: A BB2 receptor binding test was carried out using a membrane sample prepared from a human prostate cancer-derived PC-3 cell. The PC-3 cell was cultured using RPMI-1640 medium containing 5% fetal bovine serum, and then a membrane sample was prepared by the following methods. The cells loosened by a trypsin treatment were mixed with 50 mM Tris-HCl buffer (pH 7.4, containing 0.2 mg/ml trypsin inhibitor and 0.2 mg/ml benzamidine) and homogenized by Polytron. The cell suspension was centrifuged at 1,500 rpm for 10 minutes, and the thus obtained supernatant was subjected to 1 hour of ultracentrifugation at 37,000 rpm. The precipitate was suspended in the aforementioned buffer to a concentration of 0.4 mg protein/ml and stored at −80° C.
The BB2 receptor binding test was carried out by the following method, and the receptor antagonistic activity of a compound to be tested was calculated. A 50 μl portion of the membrane sample, 50 μl of an assay buffer (20 mM HEPES-HBSS containing 0.1% bovine serum albumin and 0.1 mg/ml bacitracin, pH 7.4) ^125I [Tyr^4] bombesin (0.075 nM) and 2 μl of each compound to be tested dissolved in dimethyl sulfoxide were added to a 96 well assay plate and incubated at room temperature for 2 hours. Non-specific binding was measured using 1 μM of bombesin. After completion of the incubation, the reaction liquid was filtered through a Whatman GF/B filter which had been soaked in 0.5% polyethyleneimine. The radioactivity on the filter was measured using a microplate scintillation counter (Top Count, Perkin-Elmer).

[5] = system: patients; details: IBS patients; cited from earlier work

IC50 [4] [nM]	SMILES	50% inhibition dose for restraint stress-induced defication ([1]; intraperitoneal) [mg/kg]	further results
20	CC(C)CC(CN[C@@H](CC(C)C)C(N)=O)NC(=O)[C@H](Cc1cnc[nH]1)NC(=O)CNC(=O)[C@@H](NC(=O)C(C)NC(=O)[C@H](Cc1c[nH]c2ccccc12)NC(=O)[C@H](CCC(N)=O)NC(=O)[C@H]1Cc2c([nH]c3ccccc23)CN1)C(C)C (some centres unmarked) [RC-3095]	5.2	effect on restraint stress-induced defication (in words) ([1]; intraperitoneal, FIG. 2): dose-dependent inhibitory effect on the defication; effect on CFS-induced defication at 10 mg/kg (in words) ([2]; 10 mg/kg intraperitoneal): significant inhibitory action; effect on CFS-induced defication (in words) ([2]; intraperitoneal, FIG. 8): dose-dependent inhibitory effect on the defication; action on abdominal pain threshold value at 3 mg/kg (in words) ([3]; 3 mg/kg, AUC of threshold values until 60 minutes): significant increasing action; action on abdominal pain threshold value at 10 mg/kg (in words) ([3]; 10 mg/kg, AUC of threshold values until 60 minutes): significant increasing action; action on abdominal pain threshold value (in words) ([3]; AUC of threshold values until 60 minutes after administration, FIG. 9): dose-dependently increase abdominal pain threshold value
–	Cc1[nH]cnc1CN1CCc2c(c3ccccc3n2C)C1=O [alosetron]	–	improving rate for abdominal symptoms and diarrhea [5]: 40 to 60%; serious side effect [5]: ischemic colitis (including mortal cases)
504	c1ccc(-c2sc(-c3ccccn3)nc2-c2cccc3ccccc23)cc1 [compound 1, 2-[4-(1-naphthyl)-5-phenyl-1,3-thiazol-2-yl]pyridine]	–	inhibitory effect on the defication ([1]; 10 mg/kg intraperitoneal, number of feces during 1 hour of restraint): about 83%
1330	O=C(/C=C/c1ccc(-c2ccc([N+](=O)[O-])cc2)o1)c1ccccc1 [compound 2, (2E)-3-[5-(4-nitrophenyl)-2-furyl]-1-phenyl-2-propen-1-one]	34.3	–
342	O=C(Nc1ccc(S(=O)(=O)N2CCCCC2c2cccnc2)cc1)c1cc([N+](=O)[O-])ccc1Cl (centres unmarked) [compound 3, 2-chloro-5-nitro-N-(4-{[2-(pyridin-3-yl)piperidin-1-yl]sulfonyl}phenyl)benzamide]	19.0	–
398	COc1ccc(N(CC(=O)Nc2ccc(Cl)cc2C)S(=O)(=O)c2ccccc2)cc1OC [compound 4]	13.5	–
383	COc1cc(OC)cc(C(=O)Nc2sc3c(c2-c2nc4ccccc4s2)CCN(C(C)C)C3)c1.Cl [compound 5, N-[3-(1,3-benzothiazol-2-yl)-6-isopropyl-4,5,6,7-tetrahydrothieno[2,3-c]pyridin-2-yl]-3,5-dimethoxybenzamide hydrochloride]	15.6	–
